From patent publication US12091411B2, “IRAK degraders and uses thereof” (Kymera Therapeutics, Inc., priority 2022, dated 2024)
Like-named read-outs stand apart in the source and are kept apart here.

Molecular target: T1, IRAK4 (Homo sapiens, UniProt Q9NWZ3)
T1 construct: Degradation of IRAK4 in OCI-LY10 was quantitatively measured using Meso Scale Discovery technology; endogenous in cells; host or cells: OCI-LY10
T1 sequence (Q9NWZ3 1-460): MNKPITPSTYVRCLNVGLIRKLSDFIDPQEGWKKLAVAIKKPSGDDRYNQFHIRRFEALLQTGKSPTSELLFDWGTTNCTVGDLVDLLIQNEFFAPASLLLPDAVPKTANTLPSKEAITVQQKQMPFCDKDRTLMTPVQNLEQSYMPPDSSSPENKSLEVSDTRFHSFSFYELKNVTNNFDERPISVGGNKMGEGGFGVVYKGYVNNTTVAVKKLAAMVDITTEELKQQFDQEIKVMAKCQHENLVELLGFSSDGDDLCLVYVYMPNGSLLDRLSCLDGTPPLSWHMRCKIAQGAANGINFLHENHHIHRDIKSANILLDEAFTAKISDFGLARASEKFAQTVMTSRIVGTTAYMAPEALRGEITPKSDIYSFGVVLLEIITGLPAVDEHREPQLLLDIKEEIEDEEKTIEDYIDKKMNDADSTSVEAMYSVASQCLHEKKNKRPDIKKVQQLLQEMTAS
Experiment: IRAK4 MSD Degradation in OCI-LY10
Type: cell-based
Conditions: OCI-LY10 cells, MSD
In short: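 DC50, from a three-parameter logistic fit and reported as letter bins A (<0.01 μM), B, C, D (>0.2 μM or not tested), reflects IRAK4 loss measured by MSD electrochemiluminescence in OCI-LY10 lysates. Treatment: 8 doses, 1:3 steps, top 1 to 10 μM, 4 to 24 h, 37 °C.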

[1] = 4 hrs incubation, read-out: IRAK4 degradation in OCI-LY10 at 4 hrs: DC50
[2] = 24 hrs incubation, read-out: IRAK4 degradation in OCI-LY10 at 24 hrs: DC50

Row | DC50 [1] [nM] | DC50 [2] [nM] | Structure (SMILES)
1 | > 200 | 10 to 100 | CN(C[C@H]1CC[C@H](n2cc(NC(=O)c3cnn4ccc(N5CCOCC5)nc34)c(C(F)F)n2)CC1)C1CCN(c2cccc3c2n(C)c(=O)n3C2CCC(=O)NC2=O)CC1(F)F (stereo partly drawn) [I-522]
2 | > 200 | 10 to 100 | CN(C[C@H]1CC[C@H](n2cc(NC(=O)c3cnn4ccc(N5C[C@@H]6C[C@H]5CO6)nc34)c(C(F)F)n2)CC1)C1CCN(c2cccc3c2n(C)c(=O)n3C2CCC(=O)NC2=O)CC1(F)F (stereo partly drawn) [I-523]
3 | > 200 | 10 to 100 | CN(C[C@H]1CC[C@H](n2cc(NC(=O)c3cnn4ccc(N5C6COCC5C6)nc34)c(C(F)F)n2)CC1)C1CCN(c2cccc3c2n(C)c(=O)n3C2CCC(=O)NC2=O)CC1(F)F (stereo partly drawn) [I-524]
4 | > 200 | < 10 | CN(C[C@H]1CC[C@H](n2cc(NC(=O)c3cnn4ccc(N5CC6CC(C5)O6)nc34)c(C(F)F)n2)CC1)C1CCN(c2cccc3c2n(C)c(=O)n3C2CCC(=O)NC2=O)CC1(F)F (stereo partly drawn) [I-525]
5 | > 200 | 10 to 100 | CN(C[C@H]1CC[C@H](n2cc(NC(=O)c3cnn4ccc(N5CC6CCC(C5)O6)nc34)c(C(F)F)n2)CC1)C1CCN(c2cccc3c2n(C)c(=O)n3C2CCC(=O)NC2=O)CC1(F)F (stereo partly drawn) [I-526]
6 | > 200 | 10 to 100 | CN(C[C@H]1CC[C@H](n2cc(NC(=O)c3cnn4ccc(N5C6CCC5COC6)nc34)c(C(F)F)n2)CC1)C1CCN(c2cccc3c2n(C)c(=O)n3C2CCC(=O)NC2=O)CC1(F)F (stereo partly drawn) [I-527]
7 | > 200 | 10 to 100 | C[C@H]1CN(c2ccn3ncc(C(=O)Nc4cn([C@H]5CC[C@H](CN(C)C6CCN(c7cccc8c7n(C)c(=O)n8C7CCC(=O)NC7=O)CC6(F)F)CC5)nc4C(F)F)c3n2)CCO1 (stereo partly drawn) [I-528]
8 | > 200 | 10 to 100 | C[C@@H]1CN(c2ccn3ncc(C(=O)Nc4cn([C@H]5CC[C@H](CN(C)C6CCN(c7cccc8c7n(C)c(=O)n8C7CCC(=O)NC7=O)CC6(F)F)CC5)nc4C(F)F)c3n2)CCO1 (stereo partly drawn) [I-529]
9 | > 200 | 10 to 100 | CN(C[C@H]1CC[C@H](n2cc(NC(=O)c3cnn4ccc(N5CCOC(C)(C)C5)nc34)c(C(F)F)n2)CC1)C1CCN(c2cccc3c2n(C)c(=O)n3C2CCC(=O)NC2=O)CC1(F)F (stereo partly drawn) [I-530]
10 | > 200 | > 200 | CN(C[C@H]1CC[C@H](n2cc(NC(=O)c3cnn4ccc(N5CC(C)(C)OC(C)(C)C5)nc34)c(C(F)F)n2)CC1)C1CCN(c2cccc3c2n(C)c(=O)n3C2CCC(=O)NC2=O)CC1(F)F (stereo partly drawn) [I-531]
11 | > 200 | > 200 | C[C@@H]1CN(c2ccn3ncc(C(=O)Nc4cn([C@H]5CC[C@H](CN(C)C6CCN(c7cccc8c7n(C)c(=O)n8C7CCC(=O)NC7=O)CC6(F)F)CC5)nc4C(F)F)c3n2)C[C@H](C)O1 (stereo partly drawn) [I-532]
12 | > 200 | > 200 | C[C@H]1CN(c2ccn3ncc(C(=O)Nc4cn([C@H]5CC[C@H](CN(C)C6CCN(c7cccc8c7n(C)c(=O)n8C7CCC(=O)NC7=O)CC6(F)F)CC5)nc4C(F)F)c3n2)C[C@H](C)O1 (stereo partly drawn) [I-533]
13 | > 200 | > 200 | CN(C[C@H]1CC[C@H](n2cc(NC(=O)c3cnn4ccc(N5CCO[C@@H](C(F)F)C5)nc34)c(C(F)F)n2)CC1)C1CCN(c2cccc3c2n(C)c(=O)n3C2CCC(=O)NC2=O)CC1(F)F (stereo partly drawn) [I-535]
14 | > 200 | > 200 | CN(C[C@H]1CC[C@H](n2cc(NC(=O)c3cnn4ccc(N5CCO[C@H](C(F)F)C5)nc34)c(C(F)F)n2)CC1)C1CCN(c2cccc3c2n(C)c(=O)n3C2CCC(=O)NC2=O)CC1(F)F (stereo partly drawn) [I-536]
15 | > 200 | > 200 | CN(C[C@H]1CC[C@H](n2cc(NC(=O)c3cnn4ccc(N5CCO[C@@H](C(F)(F)F)C5)nc34)c(C(F)F)n2)CC1)C1CCN(c2cccc3c2n(C)c(=O)n3C2CCC(=O)NC2=O)CC1(F)F (stereo partly drawn) [I-537]
16 | > 200 | > 200 | CN(C[C@H]1CC[C@H](n2cc(NC(=O)c3cnn4ccc(N5CCO[C@H](C(F)(F)F)C5)nc34)c(C(F)F)n2)CC1)C1CCN(c2cccc3c2n(C)c(=O)n3C2CCC(=O)NC2=O)CC1(F)F (stereo partly drawn) [I-538]
17 | > 200 | > 200 | CN(C[C@H]1CC[C@H](n2cc(NC(=O)c3cnn4ccc(N5CCOC6(CC6)C5)nc34)c(C(F)F)n2)CC1)C1CCN(c2cccc3c2n(C)c(=O)n3C2CCC(=O)NC2=O)CC1(F)F (stereo partly drawn) [I-539]
18 | > 200 | > 200 | CN(C[C@H]1CC[C@H](n2cc(NC(=O)c3cnn4ccc(N5CCOC6(CCC6)C5)nc34)c(C(F)F)n2)CC1)C1CCN(c2cccc3c2n(C)c(=O)n3C2CCC(=O)NC2=O)CC1(F)F (stereo partly drawn) [I-540]
19 | > 200 | > 200 | CN(C[C@H]1CC[C@H](n2cc(NC(=O)c3cnn4ccc(N5CCSCC5)nc34)c(C(F)F)n2)CC1)C1CCN(c2cccc3c2n(C)c(=O)n3C2CCC(=O)NC2=O)CC1(F)F (stereo partly drawn) [I-541]
20 | > 200 | > 200 | CN(C[C@H]1CC[C@H](n2cc(NC(=O)c3cnn4ccc(N5CCS(=O)(=O)CC5)nc34)c(C(F)F)n2)CC1)C1CCN(c2cccc3c2n(C)c(=O)n3C2CCC(=O)NC2=O)CC1(F)F (stereo partly drawn) [I-542]
21 | > 200 | > 200 | CN(C[C@H]1CC[C@H](n2cc(NC(=O)c3cnn4ccc(N5CCCCCC5)nc34)c(C(F)F)n2)CC1)C1CCN(c2cccc3c2n(C)c(=O)n3C2CCC(=O)NC2=O)CC1(F)F (stereo partly drawn) [I-543]
22 | > 200 | 10 to 100 | CN(C[C@H]1CC[C@H](n2cc(NC(=O)c3cnn4ccc(N5CCCOCC5)nc34)c(C(F)F)n2)CC1)C1CCN(c2cccc3c2n(C)c(=O)n3C2CCC(=O)NC2=O)CC1(F)F (stereo partly drawn) [I-544]
23 | > 200 | < 10 | Cn1c(=O)n(C2CCC(=O)NC2=O)c2cccc(C3CCN(C[C@H]4CC[C@H](n5cc6cc(NC(=O)c7cccc(C(F)(F)F)n7)c(C(F)F)cc6n5)CC4)CC3F)c21 (stereo partly drawn) [I-545]
24 | > 200 | > 200 | COc1ccc2c(c1C1CCN(C[C@H]3CC[C@H](n4cc5cc(NC(=O)c6cccc(C(F)(F)F)n6)ncc5n4)CC3)CC1F)n(C)c(=O)n2C1CCC(=O)NC1=O (stereo partly drawn) [I-546]
25 | > 200 | < 10 | COc1cc2nn([C@H]3CC[C@H](CN4CCC(c5cccc6c5n(C)c(=O)n6C5CCC(=O)NC5=O)C(F)C4)CC3)cc2cc1NC(=O)c1cccc(C(F)(F)F)n1 (stereo partly drawn) [I-547]
26 | > 200 | < 10 | Cn1c(=O)n(C2CCC(=O)NC2=O)c2cccc(C3CCN(C[C@H]4CC[C@H](n5cc6cc(NC(=O)c7cccc(C(F)(F)F)n7)c(C#N)cc6n5)CC4)CC3F)c21 (stereo partly drawn) [I-548]
27 | > 200 | < 10 | Cn1c(=O)n(C2CCC(=O)NC2=O)c2cccc(C3CCN(C[C@H]4CC[C@H](n5cc6cc(NC(=O)c7cccc(C(F)(F)F)n7)ncc6n5)CC4)CC3F)c21 (stereo partly drawn) [I-549]
28 | > 200 | < 10 | Cc1cc2nn([C@H]3CC[C@H](CN4CCC(c5cccc6c5n(C)c(=O)n6C5CCC(=O)NC5=O)C(F)C4)CC3)cc2cc1NC(=O)c1cccc(C(F)(F)F)n1 (stereo partly drawn) [I-550]
29 | > 200 | > 200 | COc1ccc2c(c1C1CCN(C[C@H]3CC[C@H](n4cc5cc(NC(=O)c6cccc(C(F)(F)F)n6)ccc5n4)CC3)CC1F)n(C)c(=O)n2C1CCC(=O)NC1=O (stereo partly drawn) [I-551]
30 | > 200 | 10 to 100 | Cn1c(=O)n(C2CCC(=O)NC2=O)c2cccc(C3CCN(C[C@H]4CC[C@H](n5cc6cc(NC(=O)c7cccc(C(F)(F)F)n7)c(Cl)cc6n5)CC4)CC3F)c21 (stereo partly drawn) [I-552]
